Counter-ions that a name gives are not always drawn.
Tested on: HCT116
Conditions: 72 h
Outline: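 HCT116 cells were plated at 250 per well in 1536-well plates and allowed 5 h to attach. CellTiter-Glo luminescence was normalized to vehicle as 0% and positive control as -100%, followed by pattern correction. Four-parameter Hill fits provided IC50 and maximal efficacy.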

Compound | IC50 cell viability (ICRF193 0 nM) | IC50 cell viability (ICRF193 200 nM)
Cn1nnc(-c2ccc(-c3ccc(N4C[C@@H](CO)OC4=O)cc3F)cn2)n1 [(S)-Tedizolid] | > 45.8 µM | > 45.8 µM
N#Cc1nn(-c2c(Cl)cc(C(F)(F)F)cc2Cl)c(N)c1[S+]([O-])C(F)(F)F (configuration not stated) [Fipronil] | > 45.8 µM | > 45.8 µM
Nc1ccccc1C(=O)OCC(O)CO (configuration not stated) [Glyceryl 1-(2-aminobenzoate)] | > 45.8 µM | > 45.8 µM
C[C@H]1C[C@@H]2[C@H]([C@@H](O)C[C@@]3(C)[C@H]2CC[C@]3(O)C(=O)COC(=O)CCC(=O)O)[C@@]2(C)C=CC(=O)C=C12 | > 45.8 µM | > 45.8 µM
CC(C)(C)NCC(O)COc1ccccc1C#N (configuration not stated) [BUNITROLOL] | > 45.8 µM | > 45.8 µM
FC(F)(F)C(F)(F)C(F)(F)C(F)(F)C(F)(F)C(F)(F)C(F)(F)C(F)(F)Br [1-Bromoheptadecafluorooctane] | > 45.8 µM | > 45.8 µM
Cc1ccc2c(Cl)cc(Cl)c(O)c2n1 [5,7-Dichloro-8-hydroxy-2-methylquinoline] | > 45.8 µM | > 45.8 µM
CN(C)C(=O)Oc1cccc([N+](C)(C)C)c1 [Neostigmine bromide] | > 45.8 µM | > 45.8 µM
COC1(O[C@H]2CC[C@H]3[C@@H]4CC[C@H]5C[C@@H]6S[C@@H]6C[C@]5(C)[C@H]4CC[C@]23C)CCCC1 [Mepitiostane (Contains ~15% 3a,4a-Epithio isomer)] | > 45.8 µM | > 45.8 µM
CC(=O)Nc1cc([As](=O)(O)O)ccc1O [Acetarsol] | > 45.8 µM | > 45.8 µM
C/C=C/c1ccc(OC)cc1 [Anethole] | > 45.8 µM | > 45.8 µM
CCCN1C[C@H](CSC)C[C@@H]2c3cccc4[nH]cc(c34)C[C@H]21 [Pergolide methanesulfonate] | > 45.8 µM | > 45.8 µM
CCCCCc1ccc(C)cc1O [Amylmetacresol] | > 45.8 µM | > 45.8 µM
COCCCOc1cc(C[C@@H](C[C@H](N)[C@@H](O)C[C@H](C(=O)NCC(C)(C)C(N)=O)C(C)C)C(C)C)ccc1OC [Aliskiren hemifumarate] | > 45.8 µM | > 45.8 µM
O=C1NC(=O)C(c2ccccc2)(c2ccccc2)N1 [5,5-Diphenylhydantoin] | > 45.8 µM | > 45.8 µM
COc1ccc(C(=O)c2ccccc2)c(O)c1 [2-Hydroxy-4-methoxybenzophenone] | > 45.8 µM | > 45.8 µM
Cn1cc(C2=C(c3cn(C4CCN(Cc5ccccn5)CC4)c4ccccc34)C(=O)NC2=O)c2ccccc21 [Enzastaurin] | > 45.8 µM | > 45.8 µM
CCN1CCCC1=O [1-Ethyl-2-pyrrolidinone] | > 45.8 µM | > 45.8 µM
c1ccc(CN(CC2=NCCN2)c2ccccc2)cc1 [Antazoline hydrochloride] | > 45.8 µM | > 45.8 µM
COc1ccc(CC2c3cc(OC)c(OC)cc3CC[N+]2(C)CCC(=O)OCCCCCOC(=O)CC[N+]2(C)CCc3cc(OC)c(OC)cc3C2Cc2ccc(OC)c(OC)c2)cc1OC (configuration not stated) [Atracurium besylate] | > 45.8 µM | > 45.8 µM
CN1CCC(=C2c3ccccc3CCc3cccnc32)CC1 [Azatadine] | > 45.8 µM | > 45.8 µM
CCN(CC)Cc1nccn1-c1ccc([N+](=O)[O-])cc1C(=O)c1ccccc1Cl [Nizofenone] | > 45.8 µM | > 45.8 µM
CCC(=O)OCC(=O)[C@@]1(OC(=O)CC)[C@H](C)C[C@H]2[C@H]3[C@H]([C@@H](O)C[C@@]21C)[C@@]1(C)C=CC(=O)C=C1C[C@H]3Cl [Alclometasone dipropionate] | > 45.8 µM | > 45.8 µM
COC1CC(=C(c2cccs2)c2cccs2)C[N+](C)(C)C1 (configuration not stated) [Timepidium bromide] | > 45.8 µM | > 45.8 µM
C[N+](C)(C)CCCCCCCCCC[N+](C)(C)C [Decamethonium bromide] | > 45.8 µM | > 45.8 µM
C1CCC(NC2CCCCC2)CC1 [Dicyclohexylamine] | > 45.8 µM | > 45.8 µM

Further lines, results first:

IC50 cell viability (ICRF193 0 nM) | IC50 cell viability (ICRF193 200 nM) | Compound
> 45.8 µM | > 45.8 µM | CCCCCCCC/C=C/CCCCCCCC(=O)O [Elaidic Acid]
> 45.8 µM | > 45.8 µM | CCCCOc1cc(C(=O)NCCN(CC)CC)c2ccccc2n1 [Dibucaine]
> 45.8 µM | > 45.8 µM | O=P(O)(O)O[C@H]1[C@H](OP(=O)(O)O)[C@@H](OP(=O)(O)O)[C@H](OP(=O)(O)O)[C@@H](OP(=O)(O)O)[C@H]1OP(=O)(O)O [Phytic acid]
> 45.8 µM | > 45.8 µM | CC(C(=O)O)c1cccc(Oc2ccccc2)c1 (configuration not stated) [Fenoprofen calcium salt dihydrate]
> 45.8 µM | > 45.8 µM | C[C@@H](O)[C@H]1C(=O)N2C(C(=O)O)=C(S[C@@H]3CN[C@H](C(=O)Nc4cccc(C(=O)O)c4)C3)[C@H](C)[C@H]12 [Ertapenem]
> 45.8 µM | > 45.8 µM | O=C1CCC(=O)N1CO [N-Hydroxymethylsuccinimide]
> 45.8 µM | > 45.8 µM | Cc1onc(-c2c(Cl)cccc2Cl)c1C(=O)N[C@@H]1C(=O)N2[C@@H]1SC(C)(C)[C@@H]2C(=O)O [Dicloxacillin sodium salt monohydrate]
> 45.8 µM | > 45.8 µM | N[C@@H]1CONC1=O [D-Cycloserine]
> 45.8 µM | > 45.8 µM | CC(=O)O[C@]1(C(C)=O)CC[C@H]2[C@@H]3C[C@H](C)C4=CC(=O)C=C[C@]4(C)[C@@]3(F)[C@@H](O)C[C@@]21C [Fluorometholone Acetate]
> 45.8 µM | > 45.8 µM | COC(=O)C1=C(C)NC(C)=C(C(=O)OC(C)C)C1c1cccc2nonc12 (configuration not stated) [Isradipine]
> 45.8 µM | > 45.8 µM | CC12CCC(CC1=O)C2(C)C [D-Camphor]
> 45.8 µM | > 45.8 µM | COc1ccc(C(=O)N2CCN(c3ccc4c(c3)CCC(=O)N4)CC2)cc1OC [Vesnarinone]
> 45.8 µM | > 45.8 µM | CCn1cc(C(=O)O)c(=O)c2cnc(N3CCCC3)nc21 [Piromidic acid]
> 45.8 µM | > 45.8 µM | CCC(CC)[C@H](NC(C)=O)[C@@H]1[C@H](O)[C@@H](C(=O)O)C[C@H]1NC(=N)N [Peramivir]
> 45.8 µM | > 45.8 µM | c1ccc2[nH]ccc2c1 [Indole]
> 45.8 µM | > 45.8 µM | FCOC(C(F)(F)F)C(F)(F)F [Sevoflurane]
> 45.8 µM | > 45.8 µM | C1CCN2C[C@@H]3C[C@@H](CN4CCCC[C@@H]34)[C@H]2C1 [Sparteine]
> 45.8 µM | > 45.8 µM | O=C1C(CC[S+]([O-])c2ccccc2)C(=O)N(c2ccccc2)N1c1ccccc1 (configuration not stated) [SULFINPYRAZONE]

IC50 cell viability (ICRF193 0 nM) | IC50 cell viability (ICRF193 200 nM) | Compound
> 45.8 µM | > 45.8 µM | CC(=O)OCC(COC(C)=O)OC(C)=O [Triacetin]
> 45.8 µM | > 45.8 µM | Cc1ncc(COP(=O)(O)O)c(C=O)c1O [Pyridoxal phosphate hydrate]
> 45.8 µM | > 45.8 µM | CCCCCCCCCC(=O)OC1(c2ccc(Cl)cc2)CCN(CCCC(=O)c2ccc(F)cc2)CC1 [HALOPERIDOL DECANOATE]
> 45.8 µM | > 45.8 µM | NC(CS)C(=O)O (racemic) [DL-Cysteine]
> 45.8 µM | > 45.8 µM | COC(=O)[C@H]1[C@H]2C[C@@H]3c4[nH]c5cc(OC)ccc5c4CCN3C[C@H]2C[C@@H](OC(=O)/C=C/c2cc(OC)c(OC)c(OC)c2)[C@@H]1OC [Rescinnamin]
> 45.8 µM | > 45.8 µM | NS(=O)(=O)c1cc2c(cc1Cl)NC(CC1CCCC1)NS2(=O)=O (configuration not stated) [Cyclopenthiazide]
> 45.8 µM | > 45.8 µM | CO/N=C(\C(=O)N[C@@H]1C(=O)N2C(C(=O)O)=C(CSc3nc(=O)c(O)nn3C)CS[C@H]12)c1csc(N)n1 [Ceftriaxone disodium trihydrate]
> 45.8 µM | > 45.8 µM | CCOC(=O)C(C)(C)Oc1ccc(Cl)cc1 [Clofibrate]
> 45.8 µM | > 45.8 µM | C=C1/C(=C\C=C2/CCC[C@]3(C)[C@@H]([C@H](C)CCCC(C)(C)O)CC[C@@H]23)C[C@@H](O)[C@@H](OCCCO)[C@@H]1O [Eldecalcitol]
> 45.8 µM | > 45.8 µM | CN(C)[C@@H]1C(O)=C(C(=O)NCNCCCC[C@H](N)C(=O)O)C(=O)[C@@]2(O)C(O)=C3C(=O)c4c(O)cccc4[C@@](C)(O)[C@H]3C[C@@H]12 [Lymecycline]
> 45.8 µM | > 45.8 µM | CC#CCn1c(N2CCC[C@@H](N)C2)nc2c1c(=O)n(Cc1nc(C)c3ccccc3n1)c(=O)n2C [Linagliptin]
> 45.8 µM | > 45.8 µM | N[C@H](CO)C(=O)O [D-SERINE]
> 45.8 µM | > 45.8 µM | CC(C)(C)NC(=O)[C@H]1CC[C@H]2[C@@H]3CC[C@H]4NC(=O)C=C[C@]4(C)[C@H]3CC[C@]12C [Finasteride]
> 45.8 µM | > 45.8 µM | O=C(O)c1cccnc1 [Niacin]
> 45.8 µM | > 45.8 µM | CCCCCCCCCCCCCCCC(=O)OC1CCCn2c1nc(C)c(CCN1CCC(c3noc4cc(F)ccc34)CC1)c2=O (configuration not stated) [Paliperidone Palmitate]
> 45.8 µM | > 45.8 µM | CC/C=C\C/C=C\C/C=C\C/C=C\C/C=C\C/C=C\CCC(=O)O [DOCONEXENT]
> 45.8 µM | > 45.8 µM | CO[C@@]1(NC(=O)C2SC(=C(C(N)=O)C(=O)O)S2)C(=O)N2C(C(=O)O)=C(CSc3nnnn3C)CS[C@@H]21 (some centres not stated) [CEFOTETAN]
